Assay results: patent US9131716B2, “Use of neoflavonoids for flavor modification” (SYMRISE AG, priority 2011, dated 2015)
Marks after values point to notes of the source that are not given here.

Columns and labels:
[1] = Reduction of bitterness of a caffeine solution, panel of experts; format: in vivo; details: 500 ppm caffeine; for Impression of bitterness (1-10) b) with test substance: scale 1-10
Text: (§1) In order to quantify the reduction (i.e. the masking or decrease) of the impression of bitterness in a sample, the bitterness of a solution containing 500 ppm caffeine or 200 ppm theobromine or 100 ppm naringin or 250 ppm salicin was compared by a panel of experts in each case with a sample that contained 500 ppm caffeine or 200 ppm theobromine or 100 ppm naringin or 250 ppm salicin and additionally the amount stated in each case of a substance to be assessed (with respect to capacity for reducing bitterness) (classification: 1 [not bitter] through 10 [extremely bitter]). The evaluation, i.e. calculation of the reduction (in %) of the impression of bitterness, was based in each case on the mean values of the appraisals of the panel of experts.

[2] = Reduction of bitterness of a theobromine solution, panel of experts; format: in vivo; details: 300 ppm theobromine; for Impression of bitterness (1-10) b) with test substance: scale 1-10
[3] = Reduction of bitterness/astringency of an EGCG solution as a function of time, panel of experts; format: in vivo; details: 750 ppm EGCG + 125 ppm ascorbic acid, 50 ppm test substance
Text: In order to quantify the reduction (i.e. the masking or decrease) of the impression of bitterness or astringency in a sample over a specified course of time, the bitterness, or astringency of a solution containing 750 ppm epigallocatechin gallate (EGCG) and 125 ppm ascorbic acid was compared by a panel of experts in each case with a sample that contained 750 ppm epigallocatechin gallate, 125 ppm ascorbic acid and additionally the amount stated in each case of a substance to be assessed (with respect to capacity for reducing bitterness), in this case a racemic mixture of compounds (7) and (8) (classification: 1 [not bitter] through 10 [extremely bitter]; or 1 [not astringent] through 10 [extremely astringent]). […] The samples were assessed by the members of the panel one after another after neutralization. The evaluation, i.e. calculation of the reduction (in %) of the impression of bitterness/astringency was based at each measurement time point in each case on the mean values of the appraisals of the panel of experts for the epigallocatechin gallate solution and the sample to be compared, containing epigallocatechin gallate and a substance to be assessed.

[4] = Reduction of bitterness of a naringin solution, panel of experts; format: in vivo; details: 100 ppm naringin
Text: as §1

Caco-2 cells = details: from Chem. Pharm. Bull. 2010, 58, 242-246; cited from earlier work
BGC823 cancer cell line = details: from CN 101906090; cited from earlier work
[5] = Reduction of bitterness of a salicin solution, panel of experts; format: in vivo; details: 250 ppm salicin, 50 ppm test substance
Text: as §1

[6] = 25 ppm test substance, scale 1-10

Q: What does the source list for `O=C1CC(c2ccc(O)cc2)c2c(O)cc(O)cc2O1` (racemic) [(7) + (8), 5,7-dihydroxy-4-(4-hydroxyphenyl)chroman-2-one]?
A: % reduction of the impression of bitterness ([1]; 25 ppm test substance): 15.5%; Impression of bitterness (1-10) b) with test substance ([1]; 25 ppm test substance): 3.4 ± 1.4; % reduction of the impression of bitterness ([2]; 10 ppm test substance): 21.7%; Impression of bitterness (1-10) b) with test substance ([2]; 10 ppm test substance): 3.6 ± 1.5; % reduction of the impression of astringency ([3]; time 0 s): −1%; % reduction of the impression of bitterness ([3]; time 0 s): −14%; % reduction of the impression of astringency ([3]; time 10 s): −7%; % reduction of the impression of bitterness ([3]; time 10 s): −22%*; % reduction of the impression of astringency ([3]; time 30 s): −7%; % reduction of the impression of bitterness ([3]; time 30 s): −25%*; % reduction of the impression of astringency ([3]; time 50 s): −19%; % reduction of the impression of bitterness ([3]; time 50 s): −35%*; % reduction of the impression of astringency ([3]; time 70 s): −15%; % reduction of the impression of bitterness ([3]; time 70 s): −29%; % reduction of the impression of bitterness ([4]; 25 ppm test substance): 48.6%; Impression of bitterness (1-10) b) with test substance [4, 6]: 2.9 ± 1.9

Q: Which results are given for `O=C1CC(c2ccc(O)cc2)c2ccc(O)cc2O1` (racemic) [(17) + (18), 7-hydroxy-4-(4-hydroxyphenyl)chroman-2-one]?
A: % reduction of the impression of bitterness ([4]; 25 ppm test substance): 44.3%; Impression of bitterness (1-10) b) with test substance [4, 6]: 3.0 ± 1.6

Q: With `COc1cc(C2CC(=O)Oc3cc(O)cc(OC)c32)cc(OC)c1OC` (centres unmarked) [(40)] as the compound, how does the “cytotoxicity against Caco-2 cells” value (Caco-2 cells) read?
A: Its value is “strong cytotoxicity”.

Q: Which “% reduction of the impression of bitterness” value ([2]; 25 ppm test substance) does the source give for `COc1cc(C2CC(=O)Oc3cc(O)ccc32)ccc1O` (racemic) [(23) + (24), 7-hydroxy-4-(4-hydroxy-3-methoxyphenyl)chroman-2-one] here?
A: The value was 22.4%.

Q: And the “Impression of bitterness (1-10) b) with test substance” value ([2]; 25 ppm test substance)?
A: Its value is 3.5 ± 1.6.

Q: Which “% reduction of the impression of bitterness” value ([4]; 5 ppm test substance) does the source give for `O=C1CC(c2ccccc2O)c2c(O)cc(O)cc2O1` (racemic) [(1) + (2), 5,7-dihydroxy-4-(2-hydroxyphenyl)chroman-2-one] here?
A: The value was 31.7%.

Q: What about the “Impression of bitterness (1-10) b) with test substance” value ([4]; 5 ppm test substance, scale 1 [not bitter] through 10 [extremely bitter]) of the same compound?
A: Its value is 3.7 ± 2.6.

Q: For `COc1ccc(C2CC(=O)Oc3cc(O)ccc32)cc1O` (centres unmarked) [(39)], which “effectiveness against the BGC823 cancer cell line” value (BGC823 cancer cell line) is on record?
A: The value was “effective”.

Q: Which results are given for `COc1cc(C2CC(=O)Oc3cc(O)cc(O)c32)ccc1O` (racemic) [(5) + (6), 5,7-dihydroxy-4-(4-hydroxy-3-methoxyphenyl)chroman-2-one]?
A: % reduction of the impression of bitterness ([1]; 50 ppm test substance): 23.5%; Impression of bitterness (1-10) b) with test substance ([1]; 50 ppm test substance): 3.0 ± 1.3; % reduction of the impression of bitterness [5]: 11.1%; Impression of bitterness (1-10) b) with test substance ([5]; scale 1-10): 5.9 ± 2.5; % reduction of the impression of bitterness ([2]; 25 ppm test substance): 30.3%; Impression of bitterness (1-10) b) with test substance ([2]; 25 ppm test substance): 3.1 ± 1.6; % reduction of the impression of bitterness ([4]; 25 ppm test substance): 49.0%; Impression of bitterness (1-10) b) with test substance [4, 6]: 3.1 ± 1.4
